Data reported in publication PMC8037161 (International Journal of Molecular Sciences, 2021).
Like-named read-outs stand apart in the source and are kept apart here.

What was measured:
pBR322 plasmid [1] = settings: cited from earlier work; for DNA-binding activity expressed as % decrease of fluorescence: previous study
recombinant human DHFR [2] = molecular target: T1, recombinant human DHFR (Homo sapiens, UniProt P00374); parameters: method as in PMID 31892256; settings: previously synthesized TMP analogs A–F; cited from earlier work
T1 construct: purchased
T1 sequence (P00374 1-187): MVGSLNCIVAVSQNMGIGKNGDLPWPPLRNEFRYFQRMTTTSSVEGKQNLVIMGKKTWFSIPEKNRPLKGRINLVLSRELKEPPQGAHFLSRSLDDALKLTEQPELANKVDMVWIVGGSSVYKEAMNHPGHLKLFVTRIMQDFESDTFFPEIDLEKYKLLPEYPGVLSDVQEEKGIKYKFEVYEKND

recombinant human DHFR [3] = molecular target: T1, recombinant human DHFR; test: Dihydrofolate reductase (DHFR) inhibition assay; assay type: biochemical; settings: assay kit
[4] = tested on: poly(dA-dT)2 (DNA, polymer) AT; test: ethidium bromide displacement, fluorescence; settings: apparent; room temperature; ethidium bromide displaced; compound 10, 50, 100 µM
calf thymus DNA [5] = test: Ethidium displacement assay, apparent binding constant, calf thymus DNA; settings: apparent association constant, ± 0.2 × 10^5 M^−1
Experimental: (§1) The fluorescence of DNA solutions (calf thymus DNA, T4 coliphage DNA, poly(dA-dT)2 and poly(dG-dC)2 with the investigated compound (final concentrations 10, 50, 100 μM) was measured by fluorescence spectrophotometer Infinite M200 TECAN at room temperature according to the procedure described above. The determination of DNA-binding constants was described in previous articles. The apparent binding constant was calculated from KEtBr [EtBr] = Kapp [drug], where [drug] = the concentration of the tested compound at 50% reduction of fluorescence and KEtBr and [EtBr] are known. The results are reported as a percentage of fluorescence decreases in Table 1.

[6] = tested on: poly(dG-dC)2 (DNA, polymer) GC; test: ethidium bromide displacement, fluorescence; settings: apparent; room temperature; ethidium bromide displaced; compound 10, 50, 100 µM
poly(dA-dT)2 [7] = test: Ethidium displacement assay, apparent binding constant, poly(dA-dT)2; settings: apparent association constant, ± 0.2 × 10^5 M^−1
Experimental: as §1

T4 coliphage DNA [8] = test: Ethidium displacement assay, apparent binding constant, T4 coliphage DNA; settings: apparent association constant, ± 0.2 × 10^5 M^−1
Source text: The values of binding constants in the range of 0.7–6.4 × 10^5 M^−1 for T4 coliphage DNA for derivatives 1–18 was evidence of their minor-groove selectivity, because the major groove of T4 coliphage DNA is blocked by a-glycosylation of the 5-(hydroxymethyl)cytidine residues. […] All of the compounds bound to AT-rich sequences weaker than netropsin but some of them bound stronger to GC-rich sequences, e.g., compounds 3, 6, and 10.
as §1

poly(dG-dC)2 [9] = test: Ethidium displacement assay, apparent binding constant, poly(dG-dC)2; settings: apparent association constant, ± 0.2 × 10^5 M^−1
Experimental: as §1

pBR322 plasmid [10] = test: Ethidium bromide assay, DNA-binding effect on plasmid pBR322; settings: % fluorescence relative to controls
Source text: Fluorescence readings are reported as % fluorescence relative to the controls.

T4 coliphage DNA [11] = tested on: T4 coliphage DNA; parameters: method as in earlier work; settings: reference values; KEtBr known (ref 25, 47); NT ref 48 (table row: ref 45); cited from earlier work
poly(dA-dT)2 [12] = tested on: poly(dA-dT)2; parameters: method as in earlier work; settings: reference values; KEtBr known (ref 25, 47); NT ref 48 (table row: ref 45); cited from earlier work
poly(dG-dC)2 [13] = tested on: poly(dG-dC)2; parameters: method as in earlier work; settings: reference values; KEtBr known (ref 25, 47); NT ref 48 (table row: ref 45); cited from earlier work
calf thymus DNA [14] = tested on: calf thymus DNA; parameters: method as in earlier work; settings: reference values; KEtBr known (ref 25, 47); NT ref 48 (table row: ref 45); cited from earlier work

| SMILES | DNA-binding activity expressed as % decrease of fluorescence (pBR322 plasmid [1]) | IC50 (recombinant human DHFR [3]) | Decrease of Fluorescence (pBR322 plasmid [10]) | Kapp T4 DNA (T4 coliphage DNA [11]) | Kapp Poly (dA-dT)2 (poly(dA-dT)2 [12]) | Kapp poly (dG-dC)2 (poly(dG-dC)2 [13]) | Kapp Calf Thymus DNA (calf thymus DNA [14]) | other results |
| --- | --- | --- | --- | --- | --- | --- | --- | --- |
| COc1ccc(CC(=O)Nc2cnc(N)nc2)c(OC)c1OC [B] | 45.18% |  |  |  |  |  |  | IC50 (recombinant human DHFR [2]): 0.99 µM |
| COc1cc(CCC(=O)Nc2cnc(N)nc2)cc(OC)c1OC [C] | 69.92% |  |  |  |  |  |  |  |
| COc1cc(/C=C/C(=O)Nc2ccc(N)c(I)c2)cc(OC)c1OC [Compound 18] |  | 2.09 ± 0.04 µM | 42.99% |  |  |  |  | Kapp [4]: 4.5 ± 0.2 × 10^5 M^−1; Kapp Calf Thymus DNA (calf thymus DNA [5]): 580000 M⁻¹; Kapp [6]: 4.6 ± 0.2 × 10^5 M^−1; Kapp Poly (dA-dT)2 (poly(dA-dT)2 [7]): 450000 M⁻¹; Kapp T4 DNA (T4 coliphage DNA [8]): 640000 M⁻¹; Kapp poly (dG-dC)2 (poly(dG-dC)2 [9]): 460000 M⁻¹ |
| CC[n+]1c(-c2ccccc2)c2cc(N)ccc2c2ccc(N)cc21 [EtBr, Ethidium bromide] |  |  | 100% | 1e+07 M⁻¹ | 95^b* × 10^5 M^−1 | 9.9e+06 M⁻¹ | 1e+07 M⁻¹ |  |
| Cn1cc(NC(=O)c2cc(NC(=O)CN=C(N)N)cn2C)cc1C(=O)NCCC(=N)N [NT, netropsin] |  | 20.56 ± 0.01 µM |  | 830000 M⁻¹ | 8.75e+07 M⁻¹ | 250000 M⁻¹ | 870000 M⁻¹ | Decrease of Fluorescence (DNA-binding effect) (pBR322 plasmid [1]; pBR322 plasmid, same conditions, 48 (table row: ref 45)): 74% |
